The source made the active and inactive calls. No cut-off for these calls is given here.
Columns and labels:
[1] = biological target: T1, Sodium channel protein type 2 subunit alpha (Homo sapiens, UniProt Q99250); experiment: Inhibition of human Nav1.2 channel expressed in HEK293 cells at -120 mV by patch clamp method; type: cell-based
[2] = biological target: T2, Sodium channel protein type 5 subunit alpha (Homo sapiens, UniProt Q14524); experiment: Inhibition of human Nav1.5 channel expressed in HEK293 cells at -150 mV by patch clamp method; type: cell-based
T2 sequence (Q14524 whole entry): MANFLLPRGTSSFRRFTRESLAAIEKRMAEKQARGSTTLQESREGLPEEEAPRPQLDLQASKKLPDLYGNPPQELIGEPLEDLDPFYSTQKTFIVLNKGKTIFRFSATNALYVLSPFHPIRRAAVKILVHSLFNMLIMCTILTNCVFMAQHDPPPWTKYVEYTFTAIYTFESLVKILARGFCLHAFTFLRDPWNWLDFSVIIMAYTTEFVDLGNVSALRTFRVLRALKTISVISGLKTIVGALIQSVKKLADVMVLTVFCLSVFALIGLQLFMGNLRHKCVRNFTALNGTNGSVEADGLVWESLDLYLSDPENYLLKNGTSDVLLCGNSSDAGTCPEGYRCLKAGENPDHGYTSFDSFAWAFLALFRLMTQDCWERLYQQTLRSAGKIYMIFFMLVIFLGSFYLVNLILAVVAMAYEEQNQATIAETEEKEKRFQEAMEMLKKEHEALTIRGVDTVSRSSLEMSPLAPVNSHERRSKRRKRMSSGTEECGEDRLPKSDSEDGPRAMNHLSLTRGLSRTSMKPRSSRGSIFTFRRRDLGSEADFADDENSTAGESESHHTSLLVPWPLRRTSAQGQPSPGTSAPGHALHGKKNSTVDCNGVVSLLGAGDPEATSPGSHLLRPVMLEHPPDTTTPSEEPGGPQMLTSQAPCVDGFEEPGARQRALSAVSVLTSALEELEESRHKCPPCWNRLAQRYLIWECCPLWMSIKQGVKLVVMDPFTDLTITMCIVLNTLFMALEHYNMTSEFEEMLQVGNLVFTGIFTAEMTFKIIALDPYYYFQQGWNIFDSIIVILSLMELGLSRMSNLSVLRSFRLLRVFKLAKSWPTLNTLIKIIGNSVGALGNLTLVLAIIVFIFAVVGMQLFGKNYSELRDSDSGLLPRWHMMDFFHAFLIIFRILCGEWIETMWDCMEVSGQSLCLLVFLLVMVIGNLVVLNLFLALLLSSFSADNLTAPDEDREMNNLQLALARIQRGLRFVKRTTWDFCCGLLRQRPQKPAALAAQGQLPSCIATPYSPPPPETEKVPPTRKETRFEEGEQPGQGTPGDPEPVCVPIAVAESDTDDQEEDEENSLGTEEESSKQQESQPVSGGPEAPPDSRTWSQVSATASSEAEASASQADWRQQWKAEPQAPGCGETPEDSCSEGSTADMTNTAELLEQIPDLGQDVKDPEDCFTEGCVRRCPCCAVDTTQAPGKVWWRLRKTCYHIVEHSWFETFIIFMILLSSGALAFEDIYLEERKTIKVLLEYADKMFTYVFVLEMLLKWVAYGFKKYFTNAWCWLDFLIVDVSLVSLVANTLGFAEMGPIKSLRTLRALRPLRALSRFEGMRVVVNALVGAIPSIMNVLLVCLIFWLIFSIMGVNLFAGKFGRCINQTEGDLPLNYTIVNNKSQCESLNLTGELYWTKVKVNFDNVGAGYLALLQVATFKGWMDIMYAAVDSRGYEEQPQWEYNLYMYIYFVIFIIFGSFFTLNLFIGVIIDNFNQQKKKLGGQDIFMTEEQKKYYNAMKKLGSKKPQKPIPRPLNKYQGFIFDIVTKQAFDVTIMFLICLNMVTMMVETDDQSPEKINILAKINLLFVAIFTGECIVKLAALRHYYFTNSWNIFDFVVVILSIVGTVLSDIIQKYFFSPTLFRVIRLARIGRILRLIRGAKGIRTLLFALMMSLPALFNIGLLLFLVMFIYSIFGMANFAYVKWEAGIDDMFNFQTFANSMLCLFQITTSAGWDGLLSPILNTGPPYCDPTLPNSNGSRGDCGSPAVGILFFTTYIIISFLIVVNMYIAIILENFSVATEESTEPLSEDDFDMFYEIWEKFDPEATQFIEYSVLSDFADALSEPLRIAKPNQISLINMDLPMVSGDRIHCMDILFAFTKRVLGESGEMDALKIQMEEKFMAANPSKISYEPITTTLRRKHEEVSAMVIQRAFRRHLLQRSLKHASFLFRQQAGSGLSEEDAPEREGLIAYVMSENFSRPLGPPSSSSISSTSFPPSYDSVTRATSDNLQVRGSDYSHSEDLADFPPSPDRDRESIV

[3] = Bioavailability in rat at 10 mg/kg, ip; type: ADME, organism-based; conditions: in vivo
Histamine H1 receptor = Histamine H1 receptor (Homo sapiens, UniProt P35367); experiment: Displacement of [3H]pyrilamine from histamine H1 receptor
Rattus norvegicus [4] = experiment: Analgesic activity in ip dosed rat complete Freund's adjuvant-induced mechanical hyperalgesia model assessed as paw withdrawal latency after 4 days; type: functional; conditions: 96 h
Rattus norvegicus [5] = experiment: Analgesic activity in rat complete Freund's adjuvant-induced mechanical hyperalgesia model assessed as paw withdrawal latency at 100 mg/kg, ip after 4 days; type: functional; conditions: route intraperitoneal
Rattus norvegicus [6] = experiment: Motor effect in ip dosed rat assessed as latency to fall by edge balance test; type: functional
[7] = biological target: C-X-C chemokine receptor type 2 (Homo sapiens, UniProt P25025); experiment: Displacement of [125I]IL8 from CXCR2 receptor
Rattus norvegicus [8] = experiment: Analgesic activity in ip dosed rat cyclophosphamide induced cyctitis model at 100 mg/kg, ip; type: functional; conditions: route intraperitoneal
D(2) dopamine receptor = D(2) dopamine receptor (Homo sapiens, UniProt P14416); experiment: Displacement of [3H]spiperone from dopamine D2 receptor
Rattus norvegicus [9] = species: Rattus norvegicus; experiment: Motor effect in rat by rotarod test; type: functional
Rattus norvegicus [10] = species: Rattus norvegicus; experiment: Analgesic activity in rat spinal nerve ligation model at 200 to 300 nM; type: functional
[11] = Cmax in rat at 10 mg/kg, po; type: ADME, organism-based; design: dose 10 mg/kg, route oral; conditions: in vivo
[12] = biological target: Muscarinic acetylcholine receptor M5 (Homo sapiens, UniProt P08912); experiment: Displacement of [3H]4DAMP from muscarinic M5 receptor
P2X purinoceptor 3 = P2X purinoceptor 3 (Homo sapiens, UniProt P56373); experiment: Inhibition of P2X3 receptor
[13] = biological target: T1, Sodium channel protein type 2 subunit alpha; experiment: Inhibition of human Nav1.2 channel expressed in HEK293 cells at -60 mV by patch clamp method; type: cell-based
[14] = Cmax in rat at 10 mg/kg, ip; type: ADME, organism-based; design: dose 10 mg/kg, route intraperitoneal; conditions: in vivo
Rattus norvegicus [15] = experiment: Analgesic activity in rat acute mechanical stimulation nociception model assessed as paw withdrawal latency at 100 mg/kg, ip; type: functional; conditions: route intraperitoneal
Rattus norvegicus [16] = experiment: Analgesic activity in rat acute thermal stimulation nociception model assessed as paw withdrawal latency at 100 mg/kg, ip; type: functional; conditions: route intraperitoneal
Rattus norvegicus [17] = experiment: Analgesic activity in ip dosed rat complete Freund's adjuvant-induced thermal hyperalgesia model assessed as paw withdrawal latency after 2 days; type: functional; conditions: 48 h
Rattus norvegicus [18] = experiment: Analgesic activity in rat skin incision model of post-operative pain at 100 mg/kg, ip after 24 hrs; type: functional; conditions: route intraperitoneal
Mus musculus [19] = experiment: Analgesic activity in mouse visceral pain model assessed as acetic acid induced writhing at 100 mg/kg, ip; type: functional; conditions: route intraperitoneal
[20] = Oral bioavailability in rat; type: ADME, organism-based; conditions: in vivo
Rattus norvegicus [21] = experiment: Analgesic activity in ip dosed rat formalin flinching inflammatory pain model; type: functional
[22] = biological target: Transient receptor potential cation channel subfamily V member 1 (Homo sapiens, UniProt Q8NER1); experiment: Inhibition of TRPV1
Sequence of Transient receptor potential cation channel subfamily V member 1 (Q8NER1 whole entry): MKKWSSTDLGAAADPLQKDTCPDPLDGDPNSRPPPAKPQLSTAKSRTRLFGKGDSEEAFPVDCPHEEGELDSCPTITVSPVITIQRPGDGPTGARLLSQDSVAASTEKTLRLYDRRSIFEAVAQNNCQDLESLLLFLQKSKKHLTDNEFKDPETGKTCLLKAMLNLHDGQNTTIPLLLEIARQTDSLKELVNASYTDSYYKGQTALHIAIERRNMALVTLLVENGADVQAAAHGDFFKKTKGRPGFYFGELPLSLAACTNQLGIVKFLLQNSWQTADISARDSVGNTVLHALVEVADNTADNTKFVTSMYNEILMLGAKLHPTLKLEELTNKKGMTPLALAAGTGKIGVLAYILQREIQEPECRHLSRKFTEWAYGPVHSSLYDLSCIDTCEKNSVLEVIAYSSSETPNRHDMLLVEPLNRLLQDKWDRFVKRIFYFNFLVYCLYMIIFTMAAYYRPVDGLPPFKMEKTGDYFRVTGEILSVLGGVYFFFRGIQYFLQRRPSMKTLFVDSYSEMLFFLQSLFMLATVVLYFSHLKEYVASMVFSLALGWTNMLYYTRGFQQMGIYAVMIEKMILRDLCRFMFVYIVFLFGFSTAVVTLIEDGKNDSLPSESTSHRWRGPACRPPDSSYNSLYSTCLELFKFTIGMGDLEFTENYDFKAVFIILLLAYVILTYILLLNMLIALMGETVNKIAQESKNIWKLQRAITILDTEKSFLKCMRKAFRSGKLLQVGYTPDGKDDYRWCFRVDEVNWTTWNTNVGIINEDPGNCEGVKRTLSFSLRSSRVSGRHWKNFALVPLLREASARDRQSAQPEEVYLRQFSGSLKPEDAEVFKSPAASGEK

[23] = biological target: Sodium channel protein type 9 subunit alpha (Homo sapiens, UniProt Q15858); experiment: Inhibition of human Nav1.7 channel expressed in HEK293 cells at -60 mV by patch clamp method; type: cell-based
[24] = biological target: Sodium channel protein type 10 subunit alpha (Homo sapiens, UniProt Q9Y5Y9); experiment: Inhibition of human Nav1.8 channel expressed in HEK293 cells at -100 mV by patch clamp method; type: cell-based
Adenosine receptor A3 = Adenosine receptor A3 (Homo sapiens, UniProt P0DMS8); experiment: Displacement of [125I]AB-MECA from adenosine A3 receptor
Rattus norvegicus [25] = experiment: Analgesic activity in rat vincristine-induced mechanical allodynic neuropathic pain at 100 mg/kg, ip; type: functional; conditions: route intraperitoneal
Rattus norvegicus [26] = experiment: Analgesic activity in ip dosed rat skin incision model of post-operative pain after 2 hrs; type: functional
P2X purinoceptor 2 = P2X purinoceptor 2 (Homo sapiens, UniProt Q9UBL9); experiment: Inhibition of P2X2 receptor
[27] = biological target: Potassium voltage-gated channel subfamily KQT member 3 (Homo sapiens, UniProt O43525); experiment: Inhibition of KCNQ3 channel
[28] = Drug level in rat plasma at 10 to 100 mg/kg, ip after 45 mins; type: ADME, organism-based; design: dose 10-100 mg/kg, route intraperitoneal
[29] = Volume of distribution in rat; type: ADME, organism-based; conditions: in vivo, read-out: Vbeta
[30] = biological target: 5-hydroxytryptamine receptor 7 (Homo sapiens, UniProt P34969); experiment: Displacement of [3H]LSD from 5HT7 receptor
Rattus norvegicus [31] = experiment: Analgesic activity in ip dosed rat carrageenan-induced […] pain model; type: functional
Rattus norvegicus [32] = experiment: Analgesic activity in rat formalin flinching inflammatory pain model at 300 mg/kg, ip; type: functional; conditions: route intraperitoneal
[33] = Displacement of [3H]GABA from GABA receptor
D(3) dopamine receptor = D(3) dopamine receptor (Homo sapiens, UniProt P35462); experiment: Displacement of [3H]spiperone from dopamine D3 receptor
Rattus norvegicus [34] = species: Rattus norvegicus; experiment: Motor effect in rat assessed as locomotory activity; type: functional
[35] = biological target: Sodium channel protein type 10 subunit alpha (Rattus norvegicus, UniProt Q62968); experiment: Inhibition of Nav1.8 channel in rat dorsal root ganglion neurons assessed as blockade of TTX-R current at -100 mV by patch clamp method; type: tissue-based
Rattus norvegicus [36] = experiment: Motor effect in rat by rotarod test at 300 mg/kg, ip; type: functional; conditions: route intraperitoneal
[37] = biological target: Delta-type opioid receptor (Homo sapiens, UniProt P41143); experiment: Displacement of [3H]DADLE from opioid delta receptor
[38] = biological target: Voltage-dependent N-type calcium channel subunit alpha-1B (Homo sapiens, UniProt Q00975); experiment: Inhibition of Cav2.2 channel
[39] = biological target: Sodium channel protein type 3 subunit alpha (Homo sapiens, UniProt Q9NY46); experiment: Inhibition of human Nav1.3 channel expressed in HEK293 cells at -120 mV by patch clamp method; type: cell-based
Rattus norvegicus [40] = experiment: Analgesic activity in rat complete Freund's adjuvant-induced mechanical hyperalgesia model assessed as paw withdrawal latency at 100 mg/kg, ip after 2 days; type: functional; conditions: route intraperitoneal
Rattus norvegicus [41] = experiment: Analgesic activity in ip dosed rat complete Freund's adjuvant-induced thermal hyperalgesia model assessed as paw withdrawal latency after 4 days; type: functional; conditions: 96 h
Mus musculus [42] = experiment: Analgesic activity in ip dosed mouse visceral pain model assessed as acetic acid induced writhing; type: functional
[43] = biological target: T2, Sodium channel protein type 5 subunit alpha; experiment: Inhibition of human Nav1.5 channel expressed in HEK293 cells at -90 mV by patch clamp method; type: cell-based
[44] = biological target: Sigma non-opioid intracellular receptor 1 (Homo sapiens, UniProt Q99720); experiment: Displacement of [3H]pentazocine from sigma1 receptor
Sequence of Sigma non-opioid intracellular receptor 1 (Q99720 whole entry): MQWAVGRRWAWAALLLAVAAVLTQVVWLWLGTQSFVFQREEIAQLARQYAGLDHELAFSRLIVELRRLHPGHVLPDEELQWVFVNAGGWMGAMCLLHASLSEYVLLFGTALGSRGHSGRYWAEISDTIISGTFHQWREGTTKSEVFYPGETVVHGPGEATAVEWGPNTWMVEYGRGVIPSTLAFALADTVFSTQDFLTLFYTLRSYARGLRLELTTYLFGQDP

Endothelin-1 receptor = Endothelin-1 receptor (Homo sapiens, UniProt P25101); experiment: Displacement of [125I]endothelin-1 from endothelin ETA receptor
Rattus norvegicus [45] = experiment: Analgesic activity in ip dosed rat chronic constriction injury model of cold allodynic neuropathic pain; type: functional
DRG neuron = experiment: Suppression of spontaneous firing of rat DRG neurons at 0.3 uM; type: functional, cell-based

T1 sequence (Q99250 whole entry): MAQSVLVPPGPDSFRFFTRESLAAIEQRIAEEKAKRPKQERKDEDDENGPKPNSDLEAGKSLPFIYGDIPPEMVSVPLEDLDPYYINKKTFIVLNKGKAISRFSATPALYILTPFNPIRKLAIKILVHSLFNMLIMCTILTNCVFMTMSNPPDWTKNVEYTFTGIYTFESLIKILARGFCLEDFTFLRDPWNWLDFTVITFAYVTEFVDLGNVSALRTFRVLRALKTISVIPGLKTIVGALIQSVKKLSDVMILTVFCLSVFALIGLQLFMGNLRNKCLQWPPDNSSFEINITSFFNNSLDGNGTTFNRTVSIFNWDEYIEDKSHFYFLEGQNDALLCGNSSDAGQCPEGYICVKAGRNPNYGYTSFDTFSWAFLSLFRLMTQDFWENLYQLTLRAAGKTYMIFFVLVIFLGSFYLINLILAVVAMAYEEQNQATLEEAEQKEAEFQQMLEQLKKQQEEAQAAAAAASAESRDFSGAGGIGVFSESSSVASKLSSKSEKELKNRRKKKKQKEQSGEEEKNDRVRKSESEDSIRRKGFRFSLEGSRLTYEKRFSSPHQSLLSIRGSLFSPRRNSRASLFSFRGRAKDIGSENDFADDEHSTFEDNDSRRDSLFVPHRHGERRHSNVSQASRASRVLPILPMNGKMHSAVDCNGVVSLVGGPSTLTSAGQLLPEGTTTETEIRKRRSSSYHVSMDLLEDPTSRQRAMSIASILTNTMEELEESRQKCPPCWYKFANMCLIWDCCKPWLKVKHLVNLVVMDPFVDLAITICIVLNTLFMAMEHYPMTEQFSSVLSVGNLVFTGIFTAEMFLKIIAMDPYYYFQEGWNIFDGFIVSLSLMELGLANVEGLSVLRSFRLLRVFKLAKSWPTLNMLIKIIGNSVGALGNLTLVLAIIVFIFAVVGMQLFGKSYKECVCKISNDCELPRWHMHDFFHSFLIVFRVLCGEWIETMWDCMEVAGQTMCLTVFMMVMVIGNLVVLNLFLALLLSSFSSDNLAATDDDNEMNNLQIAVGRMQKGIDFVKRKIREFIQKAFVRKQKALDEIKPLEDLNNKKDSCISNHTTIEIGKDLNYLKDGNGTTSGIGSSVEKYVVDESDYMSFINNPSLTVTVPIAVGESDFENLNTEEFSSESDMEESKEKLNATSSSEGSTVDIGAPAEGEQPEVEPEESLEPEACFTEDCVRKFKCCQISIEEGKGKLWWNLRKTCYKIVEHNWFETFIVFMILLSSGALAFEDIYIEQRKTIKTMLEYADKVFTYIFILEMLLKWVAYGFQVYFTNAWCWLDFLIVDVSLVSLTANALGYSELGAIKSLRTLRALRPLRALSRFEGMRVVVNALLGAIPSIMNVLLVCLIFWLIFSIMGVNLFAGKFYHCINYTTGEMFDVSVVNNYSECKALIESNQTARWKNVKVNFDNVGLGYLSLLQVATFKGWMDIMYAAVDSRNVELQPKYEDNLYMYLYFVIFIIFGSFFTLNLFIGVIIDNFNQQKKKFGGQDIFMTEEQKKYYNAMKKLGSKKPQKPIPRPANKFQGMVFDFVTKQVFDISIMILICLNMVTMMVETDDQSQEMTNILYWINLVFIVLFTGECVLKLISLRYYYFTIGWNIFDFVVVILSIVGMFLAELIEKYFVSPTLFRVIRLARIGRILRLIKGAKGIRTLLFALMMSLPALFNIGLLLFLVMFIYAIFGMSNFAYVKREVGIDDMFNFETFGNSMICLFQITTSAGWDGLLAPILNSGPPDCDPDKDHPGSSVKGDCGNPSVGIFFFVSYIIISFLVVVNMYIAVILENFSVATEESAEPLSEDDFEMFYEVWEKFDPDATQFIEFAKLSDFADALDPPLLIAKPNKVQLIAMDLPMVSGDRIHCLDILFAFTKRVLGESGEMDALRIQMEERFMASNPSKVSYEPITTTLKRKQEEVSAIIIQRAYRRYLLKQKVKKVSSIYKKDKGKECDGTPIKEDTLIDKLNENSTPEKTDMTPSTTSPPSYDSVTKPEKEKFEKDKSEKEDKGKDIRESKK

COc1cc(NC(=O)c2ccc(-c3ccc(Cl)cc3)o2)cc(OC)c1
IC50 [1]: 9.49 µM
IC50 [2]: 32.8 µM
bioavailability [3]: 26%
IC50 (Histamine H1 receptor): > 10 µM
ED50 (Rattus norvegicus [4]): > 100 mg/kg
Activity (Rattus norvegicus [5]): 42%
ED50 (Rattus norvegicus [6]): > 300 mg/kg
IC50 [7]: > 10 µM
Activity (Rattus norvegicus [8]): 0%
IC50 (D(2) dopamine receptor): > 10 µM
ED50 (Rattus norvegicus [9]): > 300 mg/kg
Activity (Rattus norvegicus [10]): >70%
Cmax [11]: 0.19 µg/mL
IC50 [12]: > 10 µM
IC50 (P2X purinoceptor 3): > 10 µM
IC50 [13]: 7.38 µM
Cmax [14]: 0.35 µg/mL
Activity (Rattus norvegicus [15]): 70%
Activity (Rattus norvegicus [16]): 0%
ED50 (Rattus norvegicus [17]): 100 mg/kg
Activity (Rattus norvegicus [18]): 32%
Activity (Mus musculus [19]): 34%
bioavailability [20]: 12.8%
ED50 (Rattus norvegicus [21]): > 100 mg/kg
IC50 [22]: > 10 µM
IC50 [23]: 6.74 µM
IC50 [24]: 0.079 µM
IC50 (Adenosine receptor A3): 12 µM
Activity (Rattus norvegicus [25]): 9%
ED50 (Rattus norvegicus [26]): > 100 mg/kg
IC50 (P2X purinoceptor 2): > 10 µM
IC50 [27]: > 10 µM
concentration at 0.75 h [28]: 0.4 µg/mL
Vd [29]: 11.5 L/kg
IC50 [30]: > 10 µM
ED50 (Rattus norvegicus [31]): 100 mg/kg
Activity (Rattus norvegicus [32]): 9%
IC50 [33]: > 10 µM
IC50 (D(3) dopamine receptor): > 10 µM
ED50 (Rattus norvegicus [34]): > 300 mg/kg
IC50 [35]: 1 µM
Activity (Rattus norvegicus [36]): 0%
IC50 [37]: > 10 µM
IC50 [38]: > 10 µM
IC50 [39]: 11.8 µM
Activity (Rattus norvegicus [40]): 34%
ED50 (Rattus norvegicus [41]): 100 mg/kg
ED50 (Mus musculus [42]): > 100 mg/kg
IC50 [43]: 7.34 µM
IC50 [44]: > 10 µM
IC50 (Endothelin-1 receptor): > 10 µM
ED50 (Rattus norvegicus [45]): 70 mg/kg
Activity (DRG neuron): Active

— ChEMBL document CHEMBL1142222, “A-803467, a potent and selective Nav1.8 sodium channel blocker, attenuates neuropathic and inflammatory pain in the rat” (Proc Natl Acad Sci U S A, 2007)
